Source: US10420733B2, “Transdermal delivery system containing methylphenidate or its salts and methods thereof” (TAHO Pharmaceuticals Ltd., priority 2016, dated 2019)

Experiment: Maximum amount of methylphenidate dissolved in various adhesives
Assay type: physicochemical
Description: Various adhesives were tested to determine the maximum amount of methylphenidate could be dissolved.

In the case of `COC(=O)C(c1ccccc1)C1CCCCN1` (stereo not shown) [methylphenidate, a-phenyl-2-piperidineacetic acid methyl ester], the “solubility in Duro Tak 87-6911” value is reported as “highly soluble”.
